From BindingDB's records for doi:10.1016/j.ejmech.2020.112861 (Zhengzhou University, 2021)

Target: Bromodomain-containing protein 4 (Homo sapiens, UniProt O60885)
Test: Binding affinity to human BRD4 bromodomain1 by isothermal titration calorimetry

Kd: 950 nM
SMILES: Cc1noc(C)c1-c1ccc2c(c1)nc(CCc1ccccc1)n2CCN1CCOCC1
